Laboratory results from patent USRE47689E1, “Compounds for treating spinal muscular atrophy” (PTC Therapeutics, Inc., priority 2011, dated 2019).
Like-named read-outs stand apart in the source and are kept apart here.

Key:
[1] = test system: SMN2 minigene (full length SMN2 minigene mRNA containing SMN2 exon 7); test: SMN2 minigene mRNA splicing RT-qPCR assay in cultured cells; type: cell-based, human; settings: Homo sapiens, HEK293-H, read-out: EC1.5x for production of full length SMN2 mRNA
How it was run: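 Full-length SMN2 minigene mRNA (exon 7 included), minigene-specific and not endogenous SMN, quantified by RT-qPCR multiplexed with GAPDH in stably transfected HEK293H cells after 24 h compound exposure at 37° C. Abundance from efficiency-corrected Ct, normalized to GAPDH and vehicle; EC1.5x reported as star bins.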

Smn protein = Smn protein assay in cultured cells (SMN HTRF); type: cell-based, human; settings: 48 hours; for EC1.5x (concentration giving 1.5-fold Smn protein increase): SMA Type 1 patient fibroblast cells (GM03813), 7-point concentration curve, SMN HTRF, concentration producing 1.5 times Smn protein vs DMSO vehicle control, read-out: EC1.5x for Smn protein expression; for maximum fold (Fold) increase of Smn protein: SMA patient fibroblast cells, 7-point concentration data, fold increase relative to vehicle control (SMN HTRF)
How it was run: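 Smn in SMA fibroblast lysates, measured by anti-SMN HTRF after 48 h compound exposure; EC1.5x from fold change over vehicle.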

[2] = HEK293H cells stably transfected with SMN2-A minigene, 24 hours, 7-point concentration curve, 1.5-fold relative to vehicle-treated cells

Structure (SMILES) | EC (1.5-fold) [1, 2] | melting point | EC1.5x (concentration giving 1.5-fold Smn protein increase) (Smn protein) | maximum fold (Fold) increase of Smn protein (Smn protein) | EC (1.5-fold) ([1]; 24 h)
Cc1cn2cc(-c3cc4ccc(N5C[C@@H](C)N[C@@H](C)C5)cc4oc3=O)nc2s1 [Compound 152, 7-[(3R,5S)-3,5-dimethylpiperazin-1-yl]-3-(2-methylimidazo[2,1-b][1,3]thiazol-6-yl)-2H-chromen-2-one] | < 0.1 µM | 210 to 212 °C | 1000 to 3000 nM | *** (fold increase between >1.35 and ≤1.5) | 
O=c1oc2cc(N3CCNCC3)ccc2cc1-c1ccc2c(c1)OCO2 [Compound 486, 3-(1,3-benzodioxol-5-yl)-7-(piperazin-1-yl)-2H-chromen-2-one] | 3 to 30 µM | 218 to 220 °C |  | * (maximum fold increase of ≤1.2) | 
Cc1cnc2nc(-c3cc4ccc(N5CCN[C@H](C)C5)cc4oc3=O)cn2c1 [Compound 463, 3-(6-methylimidazo[1,2-a]pyrimidin-2-yl)-7-[(3R)-3-methylpiperazin-1-yl]-2H-chromen-2-one] | 0.1 to 0.3 µM | 258 to 261 °C |  | * (maximum fold increase of ≤1.2) | 
C[C@@H]1CN(c2cc(F)c3cc(-c4cn5cccc(Cl)c5n4)c(=O)oc3c2)C[C@H](C)N1 [Compound 388, 3-(8-chloroimidazo[1,2-a]pyridin-2-yl)-7-[(3R,5S)-3,5-dimethylpiperazin-1-yl]-5-fluoro-2H-chromen-2-one] | 0.3 to 1 µM | 290 to 300 °C |  | ** (fold increase between >1.2 and ≤1.35) | 
CC(C)NCc1ccc2cc(-c3nc4ccccc4s3)c(=O)oc2c1 [Compound 8, 3-(1,3-benzothiazol-2-yl)-7-[(propan-2-ylamino)methyl]-2H-chromen-2-one] | 1 to 3 µM | 164 to 168 °C |  | * (maximum fold increase of ≤1.2) | 
Cc1nn2cc(-c3cc4ccc(N5C[C@@H](C)N[C@@H](C)C5)cc4oc3=O)nc2s1 [Compound 443, 7-[(3R,5S)-3,5-dimethylpiperazin-1-yl]-3-(2-methylimidazo[2,1-b][1,3,4]thiadiazol-6-yl)-2H-chromen-2-one] | < 0.1 µM | 225 to 228 °C | 300 to 1000 nM | **** (fold increase between >1.5 and ≤1.65) | 
Cc1cn2cc(-c3cc4ccc(N5CCN(CCO)CC5)cc4oc3=O)nc2c(C)n1 [Compound 654, 3-(6,8-dimethylimidazo[1,2-a]pyrazin-2-yl)-7-[4-(2-hydroxyethyl)piperazin-1-yl]-2H-chromen-2-one] | < 0.1 µM | 231 to 233 °C | < 300 nM | **** (fold increase between >1.5 and ≤1.65) | 
Cl.O=c1oc2cc(N3CCNCC3)ccc2cc1-c1nc2c(I)cccc2o1 [Compound 67, 3-(4-iodo-1,3-benzoxazol-2-yl)-7-(piperazin-1-yl)-2H-chromen-2-one hydrochloride] | 0.3 to 1 µM | 280 to 285 °C |  | * (maximum fold increase of ≤1.2) | 
CN(C)[C@H]1[C@@H]2CN(c3ccc4cc(-c5cn6ccsc6n5)c(=O)oc4c3)C[C@@H]21 [Compound 437, 7-[(1R,5S,6s)-6-(dimethylamino)-3-azabicyclo[3.1.0]hex-3-yl]-3-(imidazo[2,1-b][1,3]thiazol-6-yl)-2H-chromen-2-one] | 1 to 3 µM | 233 to 235 °C |  | ** (fold increase between >1.2 and ≤1.35) | 
Cc1csc(-c2cc3ccc(N4CCNCC4)cc3oc2=O)c1 [Compound 318, 3-(4-methylthiophen-2-yl)-7-(piperazin-1-yl)-2H-chromen-2-one] |  | 218 to 220 °C |  | * (maximum fold increase of ≤1.2) | 1 to 3 µM
Cc1cn2cc(-c3cc4ccc(N5CC[C@@H](CN(C)C)C5)cc4oc3=O)nc2c(C)n1 [Compound 967, 7-{(3S)-3-[(dimethylamino)methyl]pyrrolidin-1-yl}-3-(6,8-dimethylimidazo[1,2-a]pyrazin-2-yl)-2H-chromen-2-one] | < 0.1 µM | 198 to 200 °C | < 300 nM | **** (fold increase between >1.5 and ≤1.65) | 
Cc1cn2cc(-c3cc4ccc(N5CCCN(C)CC5)cc4oc3=O)cc2cn1 [Compound 589, 7-(4-methyl-1,4-diazepan-1-yl)-3-(3-methylpyrrolo[1,2-a]pyrazin-7-yl)-2H-chromen-2-one] | < 0.1 µM | 148 to 150 °C | < 300 nM | ***** (fold increase >1.65) | 
CCN1CCC(c2ccc3cc(-c4ccc5nc(C)cn5c4)c(=O)oc3c2)CC1 [Compound 827, 7-(1-ethylpiperidin-4-yl)-3-(2-methylimidazo[1,2-a]pyridin-6-yl)-2H-chromen-2-one] | < 0.1 µM | 268 to 270 °C | < 300 nM | ***** (fold increase >1.65) | 
Cc1cn2cc(-c3cc4ccc(N5C[C@H]6CN(C)C[C@H]6C5)cc4oc3=O)nc2c(C)n1 [Compound 688, 3-(6,8-dimethylimidazo[1,2-a]pyrazin-2-yl)-7-[(3aR,6aS)-5-methylhexahydropyrrolo[3,4-c]pyrrol-2(1H)-yl]-2H-chromen-2-one] | < 0.1 µM | 256 to 264 °C | < 300 nM | ***** (fold increase >1.65) | 
O=c1oc2cc(N3CCN(CCO)CC3)ccc2cc1-c1cn2cc(Cl)ccc2n1 [Compound 104, 3-(6-chloroimidazo[1,2-a]pyridin-2-yl)-7-[4-(2-hydroxyethyl)piperazin-1-yl]-2H-chromen-2-one] | 3 to 30 µM | 245 to 250 °C |  | *** (fold increase between >1.35 and ≤1.5) | 
O=c1oc2cc(N3CCN4CCC3CC4)ccc2cc1-c1cn2cccc(F)c2n1 [Compound 501, 7-(1,4-diazabicyclo[3.2.2]non-4-yl)-3-(8-fluoroimidazo[1,2-a]pyridin-2-yl)-2H-chromen-2-one] |  | 175 to 178 °C |  | ** (fold increase between >1.2 and ≤1.35) | 0.1 to 0.3 µM
O=C(Oc1ccc2cc(-c3nc4ccccc4s3)c(=O)oc2c1)N1CCNCC1 [Compound 41, 3-(1,3-benzothiazol-2-yl)-2-oxo-2H-chromen-7-yl piperazine-1-carboxylate] |  | 221 to 225 °C |  | * (maximum fold increase of ≤1.2) | 1 to 3 µM
CCN1CCN(c2ccc3cc(-c4cn5c(C)csc5n4)c(=O)oc3c2)CC1 [Compound 178, 7-(4-ethylpiperazin-1-yl)-3-(3-methylimidazo[2,1-b][1,3]thiazol-6-yl)-2H-chromen-2-one] | 3 to 30 µM | 178 to 180 °C |  | * (maximum fold increase of ≤1.2) | 
Cc1cn2cc(-c3cc4ccc(N5CCN6CCC[C@@H]6C5)cc4oc3=O)nc2cn1 [Compound 625, 7-[(8aR)-hexahydropyrrolo[1,2-a]pyrazin-2(1H)-yl]-3-(6-methylimidazo[1,2-a]pyrazin-2-yl)-2H-chromen-2-one] | < 0.1 µM | 240 to 245 °C | 300 to 1000 nM | *** (fold increase between >1.35 and ≤1.5) | 
Cc1cn2cc(-c3cc4ccc(N(C)C5CCN(Cc6ccccc6)C5)cc4oc3=O)nc2c(C)n1 (centres unmarked) [Compound 616, 7-[(1-benzylpyrrolidin-3-yl)(methyl)amino]-3-(6,8-dimethylimidazo[1,2-a]pyrazin-2-yl)-2H-chromen-2-one] | 0.1 to 0.3 µM | 150 to 152 °C |  | ** (fold increase between >1.2 and ≤1.35) | 
O=c1oc2cc(N3CCNCC3)ccc2cc1-c1cc2ccccn2n1 [Cpd 187, 7-(piperazin-1-yl)-3-(pyrazolo[1,5-a]pyridin-2-yl)-2H-chromen-2-one] | 0.3 to 1 µM | 236 to 238 °C |  | ** (fold increase between >1.2 and ≤1.35) | 
CN1CCCN(c2ccc3cc(-c4cn5cccc(C(F)(F)F)c5n4)c(=O)oc3c2)CC1 [Compound 293, 7-(4-methyl-1,4-diazepan-1-yl)-3-[8-(trifluoromethyl)imidazo[1,2-a]pyridin-2-yl]-2H-chromen-2-one] | 0.3 to 1 µM | 196 to 199 °C |  | * (maximum fold increase of ≤1.2) | 
COc1ccn2cc(-c3cc4ccc(N5CCN(C)CC5)cc4oc3=O)nc2c1 [Compound 435, 3-(7-methoxyimidazo[1,2-a]pyridin-2-yl)-7-(4-methylpiperazin-1-yl)-2H-chromen-2-one] | 1 to 3 µM | 251 to 259 °C |  | * (maximum fold increase of ≤1.2) | 
